Laboratory results reported in US20160297830A1, “NOVEL COMPOUNDS USEFUL FOR THE TREATMENT OF BACTERIAL INFECTIOUS DISEASES” (GALAPAGOS NV, priority 2013, published 2016).
pIC50: −log10 of the molar value. Converted amounts (≈) assume the structure as drawn. Read-outs that look alike come from different tables or passages of the source.

Key:
[1] = test system: S. aureus Sa26 ATCC 25923; assay: Antibacterial activity assay (MIC), S. aureus Sa26; format: cell-based; details: for MIC: Staphylococcus aureus
[2] = test system: S. aureus Sa2 clinical strain NCIMB 41953, MRSA; assay: microbe, parasite or virus in culture; format: cell-based; details: for MIC: Staphylococcus aureus, read-out: MIC Sa2
[3] = test system: E. coli Ec50 efflux pump KO; assay: microbe, parasite or virus in culture; format: cell-based; details: for MIC: Escherichia coli, read-out: MIC Ec50 efflux pump KO
S. aureus Sa4 NCTC 6571 = assay: Antibacterial activity assay (MIC), S. aureus Sa4; format: cell-based; details: for MIC: Staphylococcus aureus
S. aureus Sa1 ATCC 13709 = assay: microbe, parasite or virus in culture; format: cell-based; details: for MIC: Staphylococcus aureus
[4] = test system: E. coli Ec113 efflux pump KO; assay: microbe, parasite or virus in culture; format: cell-based; details: for MIC: Escherichia coli, read-out: MIC Ec113 efflux pump KO
E. coli Ec1 ATCC 25922 = assay: Antibacterial activity assay (MIC), E. coli Ec1; format: cell-based; details: for MIC: Escherichia coli
[5] = test system: H. influenza Hi47 clinical strain, Ampicillin Resistant; assay: organism not typed; format: cell-based; details: for MIC: read-out: MIC Hi47
[6] = biological target: DNA Polymerase IIIα (DnaE) from Staphylococcus aureus (Staphylococcus aureus, UniProt Q6GG04); assay: biochemical
Sequence of DNA Polymerase IIIα (DnaE) from Staphylococcus aureus (Q6GG04 1-1022): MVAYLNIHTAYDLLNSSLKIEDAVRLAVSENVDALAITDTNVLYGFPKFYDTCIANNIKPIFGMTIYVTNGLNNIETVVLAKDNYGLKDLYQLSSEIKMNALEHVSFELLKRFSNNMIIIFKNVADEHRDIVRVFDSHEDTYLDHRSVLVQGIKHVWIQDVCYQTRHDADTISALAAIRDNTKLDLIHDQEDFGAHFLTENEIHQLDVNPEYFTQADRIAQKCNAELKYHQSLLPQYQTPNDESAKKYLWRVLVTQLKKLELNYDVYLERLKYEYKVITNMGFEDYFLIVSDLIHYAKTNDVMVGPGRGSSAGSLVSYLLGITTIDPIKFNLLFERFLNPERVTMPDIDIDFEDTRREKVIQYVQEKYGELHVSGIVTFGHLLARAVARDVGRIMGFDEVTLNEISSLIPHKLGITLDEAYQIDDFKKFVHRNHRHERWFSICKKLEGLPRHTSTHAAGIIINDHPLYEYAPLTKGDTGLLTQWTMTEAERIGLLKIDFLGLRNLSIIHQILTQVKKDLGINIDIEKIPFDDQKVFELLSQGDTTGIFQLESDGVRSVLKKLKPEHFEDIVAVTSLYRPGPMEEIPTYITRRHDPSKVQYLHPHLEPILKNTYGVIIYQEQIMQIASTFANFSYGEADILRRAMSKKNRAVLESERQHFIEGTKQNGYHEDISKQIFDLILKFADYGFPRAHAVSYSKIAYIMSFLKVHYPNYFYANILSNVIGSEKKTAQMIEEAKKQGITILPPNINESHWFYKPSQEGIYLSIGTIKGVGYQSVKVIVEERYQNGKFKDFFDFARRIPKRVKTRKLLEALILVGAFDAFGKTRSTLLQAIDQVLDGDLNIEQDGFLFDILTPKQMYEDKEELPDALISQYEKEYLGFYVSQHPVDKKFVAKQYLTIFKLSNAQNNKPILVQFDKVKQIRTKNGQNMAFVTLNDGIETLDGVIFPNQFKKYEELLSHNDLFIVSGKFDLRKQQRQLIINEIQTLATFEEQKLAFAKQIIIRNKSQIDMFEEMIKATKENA

[7] = test system: H. influenza Hi3 ATCC 31517; assay: organism not typed; format: cell-based; details: read-out: MIC Hi3
[8] = test system: H. influenza Hi106 ATCC 51907; assay: organism not typed; format: cell-based; details: read-out: MIC Hi106
[9] = test system: H. influenza Hi10 clinical strain; assay: organism not typed; format: cell-based; details: read-out: MIC Hi10
[10] = ATCC25923, read-out: MIC Sa26 + 10% SH, S. aureus Sa26 + 10% SH
[11] = ATCC25923, read-out: MIC Sa26 + 50% SH, S. aureus Sa26 + 50% SH
[12] = ATCC25923, S. aureus Sa26 ATCC 25923, sensitive strain, Mueller-Hinton Broth, 37° C., read-out: MIC Sa26
[13] = NCTC6571, S. aureus Sa4 NCTC 6571, sensitive strain, read-out: MIC Sa4
[14] = ATCC13709, S. aureus Sa1 ATCC 13709, sensitive strain, Mueller-Hinton Broth, 37° C., read-out: MIC Sa1
[15] = ATCC25922, E. coli Ec1 ATCC 25922, sensitive strain, read-out: MIC Ec1
[16] = DNA polymerase III, S. aureus, read-out: IC50 semiquantitative scoring, S. aureus

Row | Compound | MIC [2] [µg/mL] | MIC [7] [µg/mL] | MIC [3] [µg/mL] | MIC [4] [µg/mL] | MIC [8] [µg/mL] | MIC [5] [µg/mL] | MIC [9] [µg/mL] | pIC50 [6] | MIC [1, 10] [µg/mL] | MIC [1, 11] [µg/mL] | MIC [1, 12] [µg/mL] | MIC (S. aureus Sa4 NCTC 6571; [13]) [µg/mL] | MIC (S. aureus Sa1 ATCC 13709; [14]) [µg/mL] | MIC (E. coli Ec1 ATCC 25922; [15]) [µg/mL] | pIC50 [6, 16] | further results
1 | 8-O-4-Bromo-5-Chloro-1H-pyrrole-2′-carbonylbranimycin [Compound 35] |  |  |  |  |  |  |  |  |  |  |  |  |  |  |  | MIC Sa26 + 10% SH ([1]; S. aureus Sa26 + 10% SH): >64 µg/mL; MIC Sa26 + 50% SH ([1]; S. aureus Sa26 + 50% SH): >64 µg/mL; MIC Sa26 ([1]; S. aureus Sa26 ATCC 25923, sensitive strain, Mueller-Hinton Broth, 37° C.): >64 µg/mL; MIC Sa2 ([2]; S. aureus Sa2 clinical strain, MRSA, Erythromycin Resistant, Fluoroquinolone resistant): 64 µg/mL; MIC Ec50 efflux pump KO ([3]; E. coli Ec50 efflux pump KO): >64 µg/mL; MIC Sa4 (S. aureus Sa4 NCTC 6571; S. aureus Sa4 NCTC 6571, sensitive strain): 64 µg/mL; MIC Sa1 (S. aureus Sa1 ATCC 13709; S. aureus Sa1 ATCC 13709, sensitive strain, Mueller-Hinton Broth, 37° C.): >64 µg/mL; MIC Ec113 efflux pump KO ([4]; E. coli Ec113 efflux pump KO): 64 µg/mL; MIC Ec1 (E. coli Ec1 ATCC 25922; E. coli Ec1 ATCC 25922, sensitive strain): >64 µg/mL; MIC Hi47 ([5]; H. influenza Hi47 clinical strain, Ampicillin Resistant): >64 µg/mL; IC50 semiquantitative scoring, S. aureus [6]: ** (key: ***: 0.001-1 μg/mL; **: 1.0-10 μg/mL; *: >10 μg/mL)
2 | COC/C(=N\OC)[C@H]1OC(=O)[C@H](COC)[C@H]2C=C[C@H]3[C@H]4O[C@]2(/C(C)=C/[C@H]1C)[C@@H]3[C@H](O)[C@@H](COC)[C@H]4OC(=O)c1ccc[nH]1 [Compound 27, 18-Deoxy-18-methoximino-8-O-1H-pyrrole-2′-carbonylbranimycin] | 1 (≈ 1.66 µM) | > 64 | > 64 | 4 (≈ 6.64 µM) | > 64 | > 64 | > 64 | 5.78 to 8.78 |  |  |  |  |  |  |  | MIC ([1]; ATCC25923, read-out: MIC Sa26): 1 µg/mL (≈ 1.66 µM); MIC ([1]; ATCC25923, read-out: MIC Sa26 + 10% SH): 2 µg/mL; MIC ([1]; ATCC25923, read-out: MIC Sa26 + 50% SH): 4 µg/mL; MIC (S. aureus Sa4 NCTC 6571; NCTC6571, read-out: MIC Sa4): 1 µg/mL (≈ 1.66 µM); MIC (S. aureus Sa1 ATCC 13709; ATCC13709, read-out: MIC Sa1): 1 µg/mL (≈ 1.66 µM); MIC (E. coli Ec1 ATCC 25922; ATCC25922, read-out: MIC Ec1): > 64 µg/mL
3 | COCC(=NOC(C)=O)[C@H]1OC(=O)[C@H](COC)[C@H]2C=C[C@H]3[C@H]4O[C@]2(/C(C)=C/[C@H]1C)[C@@H]3[C@H](O)[C@@H](COC)[C@H]4OC(=O)c1ccc[nH]1 [Compound 29, 18-Acetylimino-18-deoxy-8-O-1H-pyrrole-2′-carbonylbranimycin] | 0.5 (≈ 0.793 µM) | > 64 | 32 (≈ 50.7 µM) | 0.5 (≈ 0.793 µM) | 64 (≈ 101 µM) | 64 (≈ 101 µM) | > 64 | 5.80 to 8.80 | 1 | 2 | 1 (≈ 1.59 µM) | 0.5 (≈ 0.793 µM) | 0.5 (≈ 0.793 µM) | > 64 |  | 
4 | COC[C@@H]1[C@@H](O)[C@@H]2[C@H]3C=C[C@@H]4[C@@H](COC)C(=O)O[C@H]([C@H](O)COC)[C@H](C)/C=C(\C)[C@@]24O[C@H]3[C@@H]1OC(=O)c1cc(Br)c[nH]1 [Compound 32, 8-O-4-Bromo-1H-pyrrole-2′-carbonylbranimycin] | 4 (≈ 6.11 µM) | > 64 | > 64 | 64 (≈ 97.8 µM) | > 64 | > 64 | > 64 | 5.82 to 8.82 | 16 | 64 | 16 (≈ 24.4 µM) | 8 (≈ 12.2 µM) | 4 (≈ 6.11 µM) | > 64 |  | 
5 | COC[C@@H]1[C@@H](O)[C@@H]2[C@H]3C=C[C@@H]4[C@@H](COC)C(=O)O[C@H]([C@H](O)COC)[C@H](C)/C=C(\C)[C@@]24O[C@H]3[C@@H]1OC(=O)c1cc(Br)c(Br)[nH]1 [Compound 34, 8-O-4,5-Dibromo-1H-pyrrole-2′-carbonylbranimycin] | 64 (≈ 87.3 µM) | > 64 | > 64 | 64 (≈ 87.3 µM) | > 64 | 16 (≈ 21.8 µM) | > 64 |  | > 64 | > 64 | 64 (≈ 87.3 µM) | 32 (≈ 43.6 µM) | 64 (≈ 87.3 µM) | > 64 | 4.87 to 5.87 | 
6 | COC[C@@H]1[C@@H](O)[C@@H]2[C@H]3C=C[C@@H]4[C@@H](COC)C(=O)O[C@H]([C@H](O)COC)[C@H](C)/C=C(\C)[C@@]24O[C@H]3[C@@H]1OC(=O)c1cc(Br)c(Br)o1 [Compound 36, 8-O-4,5-Dibromofurane-2′-carbonylbranimycin] | 64 (≈ 87.1 µM) | > 64 | > 64 | 64 (≈ 87.1 µM) | > 64 | > 64 | > 64 |  | > 64 | > 64 | > 64 | 32 (≈ 43.6 µM) | 64 (≈ 87.1 µM) | > 64 | 5.87 to 8.87 | 
7 | COC[C@@H]1[C@@H](O)[C@@H]2[C@H]3C=C[C@@H]4[C@@H](COC)C(=O)O[C@H]([C@H](O)COC)[C@H](C)/C=C(\C)[C@@]24O[C@H]3[C@@H]1OC(=O)c1cc(Br)c(F)[nH]1 [Compound 37, 8-O-4-Bromo-5-Fluoro-1H-pyrrole-2′-carbonylbranimycin] | 64 (≈ 95.2 µM) | > 64 | > 64 | 16 (≈ 23.8 µM) | > 64 | > 64 | > 64 |  | > 64 | > 64 | 64 (≈ 95.2 µM) | 64 (≈ 95.2 µM) | > 64 | > 64 | 5.83 to 8.83 | 
8 | COC[C@@H]1[C@@H](O)[C@@H]2[C@H]3C=C[C@@H]4[C@@H](COC)C(=O)O[C@H]([C@H](O)COC)[C@H](C)/C=C(\C)[C@@]24O[C@H]3[C@@H]1OC(=O)c1cc(C)n[nH]1 [Compound 39, 8-O-5-Methyl-1H-Pyrazole-3′-carbonylbranimycin] | > 64 | > 64 | > 64 | > 64 | > 64 | > 64 | > 64 | 4.77 to 5.77 | > 64 | > 64 | > 64 | > 64 | > 64 | > 64 |  | 
9 | COCC(=NO)[C@H]1OC(=O)[C@H](COC)[C@H]2C=C[C@H]3[C@H]4O[C@]2(/C(C)=C/[C@H]1C)[C@@H]3[C@H](O)[C@@H](COC)[C@H]4OC(=O)c1cc(Cl)c[nH]1 [Compound 41, 18-Deoxy-18-oximino-8-O-4-Chloro-1H-pyrrole-2′-carbonylbranimycin] |  | > 64 | 64 (≈ 103 µM) | 2 (≈ 3.21 µM) | > 64 | > 64 | > 64 | 5.79 to 8.79 | 4 | 32 | 2 (≈ 3.21 µM) | 2 (≈ 3.21 µM) | 4 (≈ 6.42 µM) | > 64 |  | 
10 | COCC(=NOC(C)=O)[C@H]1OC(=O)[C@H](COC)[C@H]2C=C[C@H]3[C@H]4O[C@]2(/C(C)=C/[C@H]1C)[C@@H]3[C@H](O)[C@@H](COC)[C@H]4OC(=O)c1cc(Cl)c[nH]1 [Compound 42, 18-Acetylimino-18-deoxy-8-O-4-Chloro-1H-pyrrole-2′-carbonylbranimycin] | 2 (≈ 3.01 µM) | > 64 | 64 (≈ 96.2 µM) | 4 (≈ 6.01 µM) | > 64 | > 64 | > 64 |  | 16 | 32 | 4 (≈ 6.01 µM) | 2 (≈ 3.01 µM) | 2 (≈ 3.01 µM) | > 64 |  | 
